Test results from US20250243196A1, “CITRON KINASE INHIBITORS” (The Cleveland Clinic Foundation, priority 2021, published 2025).

Legend:
Type in all cases: biochemical
[1] = molecular target: HIPK4 (Homo sapiens (Human), UniProt Q8NE63); assay: KinaseProfiler radiometric assay (15-003KP); settings: mean of at least two independent experiments
Text: In another aspect, disclosed is a method of inhibiting citron kinase in a sample, comprising contacting the sample with a compound described herein (e.g., a compound of formula (I) or a pharmaceutically acceptable salt thereof), or a pharmaceutical composition described herein (e.g., a pharmaceutical composition comprising a compound of formula (I) or a pharmaceutically acceptable salt thereof), in an amount effective to inhibit citron kinase. In some embodiments, the step of contacting the sample with the compound comprises administering the compound to a subject (e.g., a subject) suffering from cancer. Methods of determining kinase inhibition are well known in the art. For example, kinase activity of an enzyme and the inhibitory capacity of a test compound can be determined by measuring enzyme specific phosphorylation of a substrate. Commercial assays and kits can be employed. For example, kinase inhibition can be determined using a radiometric binding assay, such as using KinaseProfiler™ technology (Eurofins Discovery). This assay method directly detects product formation without the use of modified substrates or coupling enzymes. […]
The effect of various compounds on the inhibition of other kinases has also been determined. Table 2 reports measured IC50 values; value units are nanomolar inhibition.

[2] = molecular target: ALK4(h) (Homo sapiens (Human), UniProt P36896); assay: KinaseProfiler panel; parameters: dose or concentration left out as unconfirmed; settings: activity remaining
[3] = molecular target: ARK5(h) (Homo sapiens (Human), UniProt O60285); assay: KinaseProfiler panel; parameters: dose or concentration left out as unconfirmed; settings: activity remaining
[4] = molecular target: B-Raf(h) (Homo sapiens (Human), UniProt P15056); assay: KinaseProfiler panel; parameters: dose or concentration left out as unconfirmed; settings: activity remaining
[5] = molecular target: BMPR2(h) (Homo sapiens (Human), UniProt Q13873); assay: KinaseProfiler panel; parameters: dose or concentration left out as unconfirmed; settings: activity remaining
[6] = molecular target: CaMKIIδ(h) (Homo sapiens (Human), UniProt Q13557); assay: KinaseProfiler panel; parameters: dose or concentration left out as unconfirmed; settings: activity remaining
[7] = molecular target: CDK2/cyclinA(h) (Homo sapiens (Human), UniProt P24941); assay: KinaseProfiler panel; parameters: dose or concentration left out as unconfirmed; settings: activity remaining
[8] = molecular target: CDK2/cyclinE(h) (Homo sapiens (Human), UniProt P24941); assay: KinaseProfiler panel; parameters: dose or concentration left out as unconfirmed; settings: activity remaining
[9] = molecular target: CK1ε(h) (Homo sapiens (Human), UniProt P49674); assay: KinaseProfiler panel; parameters: dose or concentration left out as unconfirmed; settings: activity remaining
[10] = molecular target: FAK(h) (Homo sapiens (Human), UniProt Q05397); assay: KinaseProfiler panel; parameters: dose or concentration left out as unconfirmed; settings: activity remaining
[11] = molecular target: Flt1(h) (Homo sapiens (Human), UniProt P17948); assay: KinaseProfiler panel; parameters: dose or concentration left out as unconfirmed; settings: activity remaining
[12] = molecular target: GCN2(h) (Homo sapiens (Human), UniProt Q9P2K8); assay: KinaseProfiler panel; parameters: dose or concentration left out as unconfirmed; settings: activity remaining
[13] = molecular target: KDR(h) (Homo sapiens (Human), UniProt P35968); assay: KinaseProfiler panel; parameters: dose or concentration left out as unconfirmed; settings: activity remaining
[14] = molecular target: Lck(h) activated (Homo sapiens (Human), UniProt P06239); assay: KinaseProfiler panel; parameters: dose or concentration left out as unconfirmed; settings: activity remaining
[15] = molecular target: MAPK2(h) (Homo sapiens (Human), UniProt P28482); assay: KinaseProfiler panel; parameters: dose or concentration left out as unconfirmed; settings: activity remaining
[16] = molecular target: MAPKAP-K3(h) (Homo sapiens (Human), UniProt Q16644); assay: KinaseProfiler panel; parameters: dose or concentration left out as unconfirmed; settings: activity remaining
[17] = molecular target: MST1(h) (Homo sapiens (Human), UniProt Q13043); assay: KinaseProfiler panel; parameters: dose or concentration left out as unconfirmed; settings: activity remaining
[18] = molecular target: NDR1(h) (Homo sapiens (Human), UniProt Q15208); assay: KinaseProfiler panel; parameters: dose or concentration left out as unconfirmed; settings: activity remaining
[19] = molecular target: OSR1(h) (Homo sapiens (Human), UniProt O95747); assay: KinaseProfiler panel; parameters: dose or concentration left out as unconfirmed; settings: activity remaining
[20] = molecular target: Pim-3(h) (Homo sapiens (Human), UniProt Q86V86); assay: KinaseProfiler panel; parameters: dose or concentration left out as unconfirmed; settings: activity remaining
[21] = molecular target: PKCγ(h) (Homo sapiens (Human), UniProt P05129); assay: KinaseProfiler panel; parameters: dose or concentration left out as unconfirmed; settings: activity remaining
[22] = molecular target: Plk1(h) (Homo sapiens (Human), UniProt P53350); assay: KinaseProfiler panel; parameters: dose or concentration left out as unconfirmed; settings: activity remaining
[23] = molecular target: PRAK(h) (Homo sapiens (Human), UniProt Q8IW41); assay: KinaseProfiler panel; parameters: dose or concentration left out as unconfirmed; settings: activity remaining
[24] = molecular target: PRKG2(h) (Homo sapiens (Human), UniProt Q13237); assay: KinaseProfiler panel; parameters: dose or concentration left out as unconfirmed; settings: activity remaining
[25] = molecular target: STK32C(h) (Homo sapiens (Human), UniProt Q86UX6); assay: KinaseProfiler panel; settings: activity remaining
[26] = molecular target: TrkA(h) (Homo sapiens (Human), UniProt P04629); assay: KinaseProfiler panel; parameters: dose or concentration left out as unconfirmed; settings: activity remaining
Sequence of TrkA(h) (P04629 33-796): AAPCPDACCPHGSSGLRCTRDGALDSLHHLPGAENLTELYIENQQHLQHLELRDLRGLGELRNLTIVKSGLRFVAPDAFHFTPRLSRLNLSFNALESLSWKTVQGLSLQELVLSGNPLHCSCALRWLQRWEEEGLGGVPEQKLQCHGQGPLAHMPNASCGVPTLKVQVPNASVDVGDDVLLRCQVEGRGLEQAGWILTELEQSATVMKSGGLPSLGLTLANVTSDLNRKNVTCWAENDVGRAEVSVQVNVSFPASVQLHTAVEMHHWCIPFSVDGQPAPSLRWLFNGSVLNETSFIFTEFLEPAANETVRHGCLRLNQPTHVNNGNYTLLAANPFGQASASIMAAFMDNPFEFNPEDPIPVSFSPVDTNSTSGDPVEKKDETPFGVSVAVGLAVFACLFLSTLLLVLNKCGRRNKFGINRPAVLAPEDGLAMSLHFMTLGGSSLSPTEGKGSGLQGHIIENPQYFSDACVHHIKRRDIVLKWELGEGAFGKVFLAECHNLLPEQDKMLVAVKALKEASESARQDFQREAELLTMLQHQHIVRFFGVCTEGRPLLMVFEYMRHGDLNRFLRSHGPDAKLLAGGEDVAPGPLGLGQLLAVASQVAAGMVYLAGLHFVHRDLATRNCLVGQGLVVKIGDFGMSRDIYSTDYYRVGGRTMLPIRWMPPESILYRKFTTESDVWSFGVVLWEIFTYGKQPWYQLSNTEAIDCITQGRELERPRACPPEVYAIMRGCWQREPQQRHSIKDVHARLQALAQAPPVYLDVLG

Sequence of FAK(h) (Q05397 whole entry): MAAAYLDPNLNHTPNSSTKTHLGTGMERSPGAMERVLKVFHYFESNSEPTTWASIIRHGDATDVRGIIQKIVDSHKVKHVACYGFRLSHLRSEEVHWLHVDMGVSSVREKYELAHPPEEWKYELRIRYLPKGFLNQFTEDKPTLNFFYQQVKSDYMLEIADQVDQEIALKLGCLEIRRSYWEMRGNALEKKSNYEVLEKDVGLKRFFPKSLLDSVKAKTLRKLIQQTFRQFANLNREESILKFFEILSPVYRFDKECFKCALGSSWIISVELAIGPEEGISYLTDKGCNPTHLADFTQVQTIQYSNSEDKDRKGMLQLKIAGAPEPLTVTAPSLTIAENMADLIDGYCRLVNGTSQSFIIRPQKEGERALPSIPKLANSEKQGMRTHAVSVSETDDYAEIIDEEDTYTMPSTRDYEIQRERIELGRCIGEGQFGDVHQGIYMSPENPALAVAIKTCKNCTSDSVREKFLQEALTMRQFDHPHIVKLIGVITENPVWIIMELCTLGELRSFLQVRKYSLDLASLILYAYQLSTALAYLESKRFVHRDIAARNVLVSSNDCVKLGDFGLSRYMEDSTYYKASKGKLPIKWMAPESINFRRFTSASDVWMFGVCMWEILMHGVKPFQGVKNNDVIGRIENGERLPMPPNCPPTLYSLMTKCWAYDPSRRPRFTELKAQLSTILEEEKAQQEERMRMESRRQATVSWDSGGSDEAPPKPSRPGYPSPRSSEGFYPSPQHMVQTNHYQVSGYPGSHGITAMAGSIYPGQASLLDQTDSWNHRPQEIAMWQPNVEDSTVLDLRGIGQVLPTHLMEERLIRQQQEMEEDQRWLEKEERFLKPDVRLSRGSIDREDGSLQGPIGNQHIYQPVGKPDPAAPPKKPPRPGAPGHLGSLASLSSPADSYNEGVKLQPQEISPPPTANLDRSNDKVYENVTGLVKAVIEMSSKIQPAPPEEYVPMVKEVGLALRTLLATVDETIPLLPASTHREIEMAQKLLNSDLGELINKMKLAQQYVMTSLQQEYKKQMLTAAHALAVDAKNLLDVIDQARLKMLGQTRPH
Sequence of CaMKIIδ(h) (Q13557 whole entry): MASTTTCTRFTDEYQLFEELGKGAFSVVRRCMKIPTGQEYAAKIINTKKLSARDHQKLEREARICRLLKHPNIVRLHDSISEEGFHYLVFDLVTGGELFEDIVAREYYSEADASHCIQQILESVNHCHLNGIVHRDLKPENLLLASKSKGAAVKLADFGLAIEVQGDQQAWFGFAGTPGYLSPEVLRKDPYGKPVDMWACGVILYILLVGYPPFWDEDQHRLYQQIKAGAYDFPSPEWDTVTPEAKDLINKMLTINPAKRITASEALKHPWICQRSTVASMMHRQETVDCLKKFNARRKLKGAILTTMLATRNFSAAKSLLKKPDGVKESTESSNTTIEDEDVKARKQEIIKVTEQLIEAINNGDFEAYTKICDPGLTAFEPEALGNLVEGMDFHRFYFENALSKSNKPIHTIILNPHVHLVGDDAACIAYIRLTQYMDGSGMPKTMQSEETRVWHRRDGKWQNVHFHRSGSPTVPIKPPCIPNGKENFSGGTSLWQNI
Sequence of STK32C(h) (Q86UX6 whole entry): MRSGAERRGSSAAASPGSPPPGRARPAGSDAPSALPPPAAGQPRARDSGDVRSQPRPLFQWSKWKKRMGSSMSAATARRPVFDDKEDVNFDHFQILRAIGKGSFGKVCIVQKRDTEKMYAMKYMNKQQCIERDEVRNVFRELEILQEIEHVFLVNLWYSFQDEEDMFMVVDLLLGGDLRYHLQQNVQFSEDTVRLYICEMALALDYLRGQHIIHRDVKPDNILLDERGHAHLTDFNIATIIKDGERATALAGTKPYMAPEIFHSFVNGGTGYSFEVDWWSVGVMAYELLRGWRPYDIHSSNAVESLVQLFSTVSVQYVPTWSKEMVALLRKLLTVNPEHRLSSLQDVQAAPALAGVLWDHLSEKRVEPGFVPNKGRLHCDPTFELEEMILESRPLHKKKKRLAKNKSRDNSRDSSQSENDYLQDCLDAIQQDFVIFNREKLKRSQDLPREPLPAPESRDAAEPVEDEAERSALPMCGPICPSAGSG
Sequence of ARK5(h) (O60285 whole entry): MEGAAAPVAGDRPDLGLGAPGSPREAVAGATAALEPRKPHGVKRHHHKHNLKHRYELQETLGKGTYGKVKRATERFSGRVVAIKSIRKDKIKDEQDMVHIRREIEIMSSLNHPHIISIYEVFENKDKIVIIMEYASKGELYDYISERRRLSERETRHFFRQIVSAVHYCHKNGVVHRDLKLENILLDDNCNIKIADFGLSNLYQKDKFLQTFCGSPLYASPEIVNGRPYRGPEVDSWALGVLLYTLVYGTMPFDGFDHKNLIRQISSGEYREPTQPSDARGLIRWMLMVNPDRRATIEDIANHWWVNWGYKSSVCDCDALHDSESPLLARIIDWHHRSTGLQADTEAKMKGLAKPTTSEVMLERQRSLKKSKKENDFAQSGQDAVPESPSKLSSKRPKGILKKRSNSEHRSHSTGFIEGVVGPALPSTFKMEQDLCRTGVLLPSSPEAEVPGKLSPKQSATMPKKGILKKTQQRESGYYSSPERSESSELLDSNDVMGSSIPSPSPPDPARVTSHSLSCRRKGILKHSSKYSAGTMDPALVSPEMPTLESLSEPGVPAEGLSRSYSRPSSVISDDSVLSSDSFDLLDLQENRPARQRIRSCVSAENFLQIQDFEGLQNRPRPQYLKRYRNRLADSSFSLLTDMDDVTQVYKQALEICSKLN
Sequence of HIPK4 (Q8NE63 whole entry): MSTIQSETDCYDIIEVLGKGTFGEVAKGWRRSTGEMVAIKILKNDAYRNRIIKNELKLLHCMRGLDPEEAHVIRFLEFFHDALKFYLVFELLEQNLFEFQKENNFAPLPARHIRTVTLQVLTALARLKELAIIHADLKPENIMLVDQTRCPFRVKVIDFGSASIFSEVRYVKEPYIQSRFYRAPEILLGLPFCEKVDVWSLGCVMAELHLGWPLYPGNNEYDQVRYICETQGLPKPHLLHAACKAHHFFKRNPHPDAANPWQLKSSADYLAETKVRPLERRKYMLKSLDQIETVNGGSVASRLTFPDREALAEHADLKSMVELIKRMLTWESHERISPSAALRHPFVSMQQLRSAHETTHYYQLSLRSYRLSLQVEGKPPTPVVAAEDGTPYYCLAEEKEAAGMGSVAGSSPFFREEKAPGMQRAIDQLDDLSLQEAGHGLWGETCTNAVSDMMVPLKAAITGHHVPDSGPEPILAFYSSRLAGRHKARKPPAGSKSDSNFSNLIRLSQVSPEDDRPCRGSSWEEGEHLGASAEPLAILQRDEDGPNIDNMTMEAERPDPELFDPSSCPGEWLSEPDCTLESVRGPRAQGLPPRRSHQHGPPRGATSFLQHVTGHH
Sequence of MAPK2(h) (P28482 whole entry): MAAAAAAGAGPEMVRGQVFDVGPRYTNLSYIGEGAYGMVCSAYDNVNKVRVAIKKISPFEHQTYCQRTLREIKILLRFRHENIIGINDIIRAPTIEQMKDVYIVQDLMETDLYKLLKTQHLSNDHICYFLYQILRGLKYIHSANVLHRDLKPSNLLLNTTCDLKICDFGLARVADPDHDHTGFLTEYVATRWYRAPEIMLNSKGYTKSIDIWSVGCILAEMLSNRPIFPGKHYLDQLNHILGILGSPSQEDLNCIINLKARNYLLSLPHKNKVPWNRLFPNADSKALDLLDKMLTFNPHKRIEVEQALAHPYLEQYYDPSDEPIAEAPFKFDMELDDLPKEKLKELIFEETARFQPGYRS
Sequence of Lck(h) activated (P06239 whole entry): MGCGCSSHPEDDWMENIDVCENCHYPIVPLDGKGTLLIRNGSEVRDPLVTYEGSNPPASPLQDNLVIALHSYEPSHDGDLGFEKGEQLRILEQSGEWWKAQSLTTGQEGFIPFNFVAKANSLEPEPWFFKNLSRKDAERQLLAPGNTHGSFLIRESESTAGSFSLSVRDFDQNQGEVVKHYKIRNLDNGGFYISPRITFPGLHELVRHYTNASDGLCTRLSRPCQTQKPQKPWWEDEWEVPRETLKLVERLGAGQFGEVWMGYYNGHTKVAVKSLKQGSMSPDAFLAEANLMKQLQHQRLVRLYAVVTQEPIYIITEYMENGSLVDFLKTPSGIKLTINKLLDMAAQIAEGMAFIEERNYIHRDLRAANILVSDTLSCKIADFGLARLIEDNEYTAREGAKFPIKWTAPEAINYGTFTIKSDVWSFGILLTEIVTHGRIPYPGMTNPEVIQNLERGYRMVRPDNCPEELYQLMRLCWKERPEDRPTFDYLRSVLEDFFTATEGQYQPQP

## Cc1cc2c(-c3ccc(NC(=O)[C@H](N)CC(C)(C)C)cc3C)ccnc2[nH]1 [Compound F-90, (2R)-2-Amino-4,4-dimethyl-N-[3-methyl-4-(2-methyl-1H-pyrrolo[2,3-b]pyridin-4-yl)phenyl]pentanamide]
[1]
  IC50: 2280 nM
[2]
  % Activity: 94%
[3]
  % Activity: 85%
[4]
  % Activity: 110%
[5]
  % Activity: 85%
[6]
  % Activity: 96%
[7]
  % Activity: 87%
[8]
  % Activity: 92%
[9]
  % Activity: 96%
[10]
  % Activity: 96%
[11]
  % Activity: 125%
[12]
  % Activity: 101%
[13]
  % Activity: 78%
[14]
  % Activity: 119%
[15]
  % Activity: 109%
[16]
  % Activity: 125%
[17]
  % Activity: 76%
[18]
  % Activity: 100%
[19]
  % Activity: 80%
[20]
  % Activity: 103%
[21]
  % Activity: 97%
[22]
  % Activity: 111%
[23]
  % Activity: 107%
[24]
  % Activity: 110%
[25]
  % Activity: 85%
[26]
  % Activity: 105%
